Measurements published in patent publication US20230000872A1, “TRPA1 ANTAGONIST FOR THE TREATMENT OF PAIN ASSOCIATED TO DIABETIC NEUROPATHIC PAIN” (Glenmark Pharmaceuticals S.A., priority 2014, published 2023).

Legend:
[1] = test system: subjects with painful DPN; experiment: Phase II clinical study of Compound I 250 mg BID, 4 weeks, in subjects with painful diabetic neuropathy (Example 1); format: in vivo, human; parameters: key to Mean API score (24-hour): 11-point pain intensity NRS (0–10); key to Night-time API Score, mean score: API score on 11-point pain intensity NRS (0–10); details: for Sleep interference score, mean score: 11-point scale; for API Score, mean score: 11-point NRS; for % subject population with >30% Reduction from baseline API Score / % subject population with >50% Reduction from baseline API Score: end of 4 week treatment
Source text: Example 1: A Phase II Clinical Study to Evaluate Efficacy, Safety and Tolerability of Compound I in Subjects With Painful Diabetic Neuropathy
• To assess the efficacy of Compound I in the treatment of pain associated with diabetic peripheral neuropathy (DPN). • To evaluate the safety and tolerability of Compound I administered once daily (OD) or twice daily (BID) in subjects with painful DPN. • To investigate effect of Compound I on time to sustained improvement in pain, night-time pain, intensity of pain on neuropathic pain symptoms inventory (NPSI), and sleep in subjects with painful DPN. • To evaluate number of subjects who are responders on the […] of Change (PGIC) Questionnaire, Clinician Global Impression of Change (CGIC) Questionnaire; and number of subjects who achieve various levels of percent reduction in pain. • To investigate the pharmacokinetics (PK) of Compound I in subjects with DPN • To investigate effect of Compound I on the use of rescue medication (ibuprofen 400 mg to 600 mg four times a day or paracetamol 500 mg to 1000 mg two to three times a day) in subjects with painful DPN • To investigate effect of Compound I in subjects with painful DPN who have mechanical hyperalgesia and/or cold allodynia.
This was a multi-center, randomized, double-blind, placebo-controlled, parallel group, 4 week study of Compound I 250 mg BID in subjects with painful DPN. The study included a total of 138 subjects with DPN, randomized in a 1:1 ratio into 250 mg BID Compound I or Placebo. The study was conducted for a total period of 9 weeks as: up to a 2-week screening/washout period, a 1-week placebo-run in period, 4 weeks of treatment period and 2 weeks of follow-up period.
• Men and women (post-menopausal/surgically sterile only) aged between 18-75 (both inclusive) years • Subjects having diabetes mellitus (type 1 or 2) with a distal symmetric chronic sensorimotor painful peripheral neuropathy • A history of DPN pain for at least 6 months and no greater than 5 years. • DN4 “Douleur Neuropathique en 4” questions score of ≥4 • A baseline 24-hour average daily pain intensity score ≥4 and <9 as measured on a 11-point pain intensity NRS (numeric rating scale) • Subjects having stable glycemic control for at least one or two or three months prior to randomization having HbAlc (Glycosylated Hemoglobin) <8% • Subjects detected to have mechanical hyperalgesia and/or cold allodynia (detected with appropriate methodology)
Study medications were: • Placebo matching 250 mg Compound I during the placebo run-in period was taken orally BID in a fed state (30 minutes after breakfast/dinner) every day for day −7 to day −1 during Run-in period. The time interval between 2 consecutive doses must be 12 hours±60 min • 250 mg Compound I potassium granules or matching placebo during day-1 to day-28 treatment period. The time interval between 2 consecutive doses was 12 hours±60 min. • Reference therapy: Placebo to match investigational product, administered BID.
Clinical Endpoints were: • Change from baseline to end of treatment (i.e., baseline to end of week 4) in the mean 24-hour API score based on an 11-point pain intensity NRS • Change from baseline at the end of week 1, 2, 3, 4 and 6 in: • Mean night-time API (average pain intensity) Score (subject diary): night-time is defined as the time between going to bed at night and rising in the morning • Mean night-time worst pain intensity Score (subject diary): worst pain is defined as the subject's assessment of their worst pain intensity for the time period • Mean sleep interference Score (subject diary): A 11-point scale that asks subjects to select the score that best describes how much the pain interfered with sleep during the past 24 hours.

[2] = test system: subjects with painful DPN and having preserved peripheral nerve function; experiment: Phase II clinical study of Compound I 250 mg BID, 4 week treatment plus 2 weeks follow up, in subjects with painful DPN and preserved peripheral nerve function (Example 2); format: in vivo, human
Source text: Example 2: A Phase II Clinical Study to Evaluate Efficacy, Safety and Tolerability of Compound I in Subjects With Painful Diabetic Neuropathy
• Objectives of this study were To assess the safety, efficacy and tolerability of Compound I in the treatment of pain associated with diabetic peripheral neuropathy (DPN) and to evaluate efficacy of Compound I administered once daily (OD) or twice daily (BID) in subjects with painful DPN and having preserved peripheral nerve function and to investigate effect of Compound I on time to sustained improvement in pain, night-time pain, intensity of pain on neuropathic pain symptoms inventory (NPSI), and sleep in subjects with painful DPN and having preserved peripheral nerve function. • This was a randomized, double-blind, placebo-controlled, parallel group, 4 week treatment followed by 2 weeks follow up study of Compound I 250 mg and placebo BID in subjects with painful DPN and having preserved peripheral nerve function. The study included a total of 136 subjects with DPN and having preserved peripheral nerve function. • Clinical Endpoints were change from baseline in mean 24-hour API score based on an 11-point pain intensity NRS at the end of week 4 and week 6 in • In ITT ([…]) population and • In subject having one or more from baseline average pain intensity (API) score of ≥5, Cold detection threshold >18° C. at baseline as determined by QST and Warm detection threshold <49° C. at baseline as determined by QST

[3] = Sub-group: Hypersensitivity to cold stimulus and/or mechanical stimulus, Week 4
[4] = Sub-group: Moderate to severe pain (NRS score 5-8) and hypersensitivity to cold stimulus and/or mechanical stimulus, Week 4
[5] = Sub-group: Moderate to severe pain (NRS score 5-8) and preserved peripheral sensory neurons, Week 4
[6] = Sub-group: Moderate to severe pain (NRS score 5-8), Week 4
[7] = Sub-group: Preserved peripheral sensory neurons (non-denervation by QST), Week 4
[8] = Week 0 (baseline), 250 mg BID oral
[9] = Week 4 vs baseline, 250 mg BID oral
[10] = Sub-group: Hypersensitivity to cold stimulus and/or mechanical stimulus
[11] = Sub-group: Moderate to severe pain (NRS score 5-8)
[12] = Sub-group: Moderate to severe pain (NRS score 5-8) and hypersensitivity to cold stimulus and/or mechanical stimulus
[13] = Sub-group: Moderate to severe pain (NRS score 5-8) and preserved peripheral sensory neurons
[14] = Sub-group: preserved peripheral sensory neurons
[15] = subjects with one or more of baseline API score ≥5, Cold detection threshold >18° C., Warm detection threshold <49° C. (QST), Week 4
[16] = subjects with one or more of baseline API score ≥5, Cold detection threshold >18° C., Warm detection threshold <49° C. (QST), Week 6

Cn1c(=O)c2c(CC(=O)Nc3nc(-c4ccc(F)c(C(F)(F)F)c4F)cs3)csc2n(C)c1=O [Compound I, N-{4-[2,4-difluoro-3-(trifluoromethyl)phenyl]-1,3-thiazol-2-yl}-2-(1,3-dimethyl-2,4-dioxo-1,2,3,4-tetrahydrothieno[2,3-d]pyrimidin-5-yl)acetamide]
Onset of Sustained improvement in 24-hour API Score ([1]; 250 mg BID oral): Score is achieved in 18 days | Mean API score (24-hour) ([1]; Sub-group: Hypersensitivity to cold stimulus and/or mechanical stimulus, Week 0 (baseline)): 6.1 | API score % Reduction from baseline [1, 3]: 32.78% | Mean API score (24-hour) [1, 3]: 4.1 | Mean API score (24-hour) ([1]; Sub-group: Moderate to severe pain (NRS score 5-8) and hypersensitivity to cold stimulus and/or mechanical stimulus, Week 0 (baseline)): 6.5 | API score % Reduction from baseline [1, 4]: 36.92% | Mean API score (24-hour) [1, 4]: 4.1 | Mean API score (24-hour) ([1]; Sub-group: Moderate to severe pain (NRS score 5-8) and preserved peripheral sensory neurons, Week 0 (baseline)): 6.4 | API score % Reduction from baseline [1, 5]: 35.93% | Mean API score (24-hour) [1, 5]: 4.1 | Mean API score (24-hour) ([1]; Sub-group: Moderate to severe pain (NRS score 5-8), Week 0 (baseline)): 6.3 | API score % Reduction from baseline [1, 6]: 33.33% | Mean API score (24-hour) [1, 6]: 4.2 | Mean API score (24-hour) ([1]; Sub-group: Preserved peripheral sensory neurons (non-denervation by QST), Week 0 (baseline)): 6.2 | API score % Reduction from baseline [1, 7]: 33.33% | Mean API score (24-hour) [1, 7]: 4.1 | Mean daily dose of rescue medication [1, 8]: 425 mg | Night-time API Score, mean score [1, 8]: 5.1 | Night-time Worst pain intensity Score, mean score [1, 8]: 5.3 | Sleep interference score, mean score [1, 8]: 4.5 | API Score, mean score ([1]; Week 0, 250 mg BID oral): 6.0 | Mean daily dose of rescue medication ([1]; Week 4, 250 mg BID oral): 111 mg | Night-time API Score, mean score ([1]; Week 4, 250 mg BID oral): 3.4 | Night-time Worst pain intensity Score, mean score ([1]; Week 4, 250 mg BID oral): 3.5 | API Score, mean score ([1]; Week 4, 250 mg BID oral): 4.1 | Sleep interference score, mean score ([1]; Week 4, 250 mg BID oral): 2.7 | API Score, % Reduction ([1]; Week 4 vs Week 0, 250 mg BID oral): 31.66% | Change in mean daily dose of rescue medication, % Reduction [1, 9]: 73.8% | Night-time API Score, % Reduction [1, 9]: 33.33% | Night-time Worst pain intensity Score, % Reduction [1, 9]: 33.96% | Sleep interference score, % Reduction [1, 9]: 40% | % subject population with >30% Reduction from baseline API Score [1, 10]: 59.1% | % subject population with >50% Reduction from baseline API Score [1, 10]: 36.4% | % subject population with >30% Reduction from baseline API Score [1, 11]: 58.6% | % subject population with >50% Reduction from baseline API Score [1, 11]: 34.5% | % subject population with >30% Reduction from baseline API Score [1, 12]: 66.7% | % subject population with >50% Reduction from baseline API Score [1, 12]: 44.4% | % subject population with >30% Reduction from baseline API Score [1, 13]: 56.7% | % subject population with >50% Reduction from baseline API Score [1, 13]: 40.0% | % subject population with >30% Reduction from baseline API Score [1, 14]: 52.9% | % subject population with >50% Reduction from baseline API Score [1, 14]: 35.3% | Mean API score ([2]; ITT population, Week 0 (baseline)): 6.0 | API score % Reduction from baseline ([2]; ITT population, Week 4): 32.16% | Mean API score ([2]; ITT population, Week 4): 4.07 | API score % Reduction from baseline ([2]; ITT population, Week 6): 40.16% | Mean API score ([2]; ITT population, Week 6): 3.59 | Mean API score ([2]; subjects with one or more of baseline API score ≥5, Cold detection threshold >18° C., Warm detection threshold <49° C. (QST), Week 0 (baseline)): 5.0 | API score % Reduction from baseline [2, 15]: 49.6% | Mean API score [2, 15]: 2.52 | API score % Reduction from baseline [2, 16]: 66.2% | Mean API score [2, 16]: 1.69
